Measured values published in patent US5498601A, “Platelet aggregation-inhibiting peptides” (Nippon Steel Corporation, priority 1992, dated 1996).
Non-standard residues stand in square brackets, D forms with d. Residues, ends and D or L forms follow the SMILES beside them. No end group written: not given here. *: point of attachment. pGlu = O=C1CC[C@@H](C(=O)O)N1; Pip = O=C(O)[C@@H]1CCCCN1; X2 = O=C(c1cc(O)nc(O)n1)*; Aze = O=C(O)[C@@H]1CCN1

Assays:
in vivo = assay: in vivo; parameters: species or system MCH (ICR) strain mice; settings: male, MCH (ICR), mouse, iv; for half-life: Half-Time of the synthetic peptides in mice
Experimental: For the evaluation of stability, MCH (ICR) strain mice (male, body weight: 28-32 g) were used. […] After a certain period of time, blood was collected from the abdominal vein using an injection syringe treated with heparin. Immediately after the collection, the blood was centrifuged (1500 g, 3 minutes) at 4° C. and the supernatant was stored frozen at -20° C. Each of the supernatants was analyzed by reversed phase HPLC in the same manner as that in the aforementioned evaluation of stability in plasma.

[1] = stability of the synthetic peptides in human plasma; type: in vitro ADME; settings: 37° C., peptide 100 μM; for half-life at 100 μM: male, read-out: Half-Time of the synthetic peptides in plasma
Experimental: The blood sample thus prepared was examined for the stability in whole blood. […] Then, the supernatant was collected to obtain a plasma fraction. This plasma fraction was examined for the stability in plasma.
The whole blood or plasma (225 μl) was placed in a test tube and heated to 37° C. Each of the synthetic peptides was dissolved in saline (pH 7.4) to prepare a solution at a concentration of 1 mM. Each of the synthetic peptide solutions was added to the whole blood or plasma in an amount of 25 μl (final concentration: 100 μM) and incubated for a certain period of time. After the incubation, the solution was cooled with ice to stop the degradation reaction. The plasma was stored frozen at -20° C. without performing any treatments. The whole blood was centrifuged at 2000 g for 5 minutes at 4° C. and the supernatant was stored frozen.
The samples were analyzed by reversed phase HPLC. The peak area of each synthetic peptide was calculated and the stability in the whole blood or plasma was evaluated from the change of the peak area.

platelet aggregation = assay: intravenous injection in beagle, platelet aggregation of PRP measured over time; type: in vivo; settings: 5 mg/Kg i.v.
Experimental: (1) In order to examine how long the peptides of the present invention and heparin, which is used as an anticoagulant at present, can remain without being broken down or eliminated and how long the activity of them persists, intravenous injection experiments were carried out using beagles.
Since the peptides of the present invention have the platelet aggregation-inhibiting activity, the amount of the peptides which remain in the body of an organism without being broken down can be determined by collecting blood and measuring the platelet aggregation-inhibiting activity of the blood at given intervals of time. Thus, the in vivo stability of the peptides can be estimated.
In the experiments, a male beagle having a body weight of 10 Kg was used. […] The collected blood was centrifuged at 1000 rpm for 10 minutes to prepare platelet-rich plasma (PRP). The reminder was further centrifuged at 3000 rpm for 15 minutes to prepare platelet-poor plasma (PPP).
The platelet aggregation ability was determined by measuring the platelet aggregation of the PRP with collagen and ADP using an aggregometer. In the measurement, ADP was added at a final concentration of 7.5 and 10.0 μM and collagen was added at a final concentration of 7.5 and 10.0 μg/ml.

blood coagulation = assay: intravenous heparin in beagle, prothrombin time and activated partial thromboplastin time; type: in vivo; settings: 200 U/Kg i.v.
Experimental: (2) Heparin, currently used as an anticoagulant, was used as a comparison with the peptides of the present invention.
Therefore, the in vivo stability of heparin was estimated by measuring the time-dependent change in the anticoagulation action which is the main action of heparin.
In the experiments, haparin as dissolved in saline was injected into the vein and blood was collected at given intervals of time to prepare PPP by the same method as that described in (1).
In the measurement of the anticoagulation action, the prepared PPP was used to measure prothrombin time, which is an indicator of blood coagulation activity in vitro, and activated partial thromboplastin time according to a conventional method. Each measurement was conducted under preincubation conditions at 37° C. for 3 minutes using AMELUNG KC-10A (Baxtor CO.). The rate of the disappearance of heparin from the body can be estimated by measuring the prolongations of the prothrombin time and the activated partial thromboplastin time (i.e., the prolongation of time up to coagulation) after the injection.

human platelets = assay: protection of human platelet fraction during storage; settings: platelet fraction, enzymes present in plasma
Experimental: Immediately after the blood collection, the syringe was stirred gently to mix the blood with the sodium citrate solution. The mixed blood was centrifuged (1100 rpm, 250 g) at room temperature for 15 minutes and the rotation was stopped without applying the brake. Then, the supernatant was collected with a pipette to obtain a platelet fraction. The remaining blood was further centrifuged (3000 rpm, 1000 g). The supernatant was collected to obtain platelet-poor plasma and stored.
The platelet fraction was placed in a polypropylene test tube, which was capped with a membrane filter to ensure breathability. Then, the test tube was placed on a shaker and stored at room temperature while shaking through vibrational amplitude of 20 cm at a frequency of 2 Hz. All the operations were performed under aseptic conditions to prevent the proliferation of bacteria during the storage.
After the storage for a given period of time, an aliquot of the platelet fraction was sampled and the number of platelets was measured. Prostaglandin E1 (Sigma Co.) was added to give a final concentration of 20 μg/ml and centrifuged at 750 g for 10 minutes. The supernatant was removed and the remainder was washed twice with HEPES-Tyrode's buffer containing prostaglandin E1 to remove the protected peptide. Finally, the platelets were suspended in preliminarily stored platelet-poor plasma. After the incubation for a given period of time, the aggregation ability of the platelets was determined by the method described above.

Compound	half-life (in vivo) [min]	Half-Time of the synthetic peptides in plasma [1]	half-life at 100 μM [1] [min]	other results
PSRGDW-OH [Example 16, Pro--Ser--Arg--Gly--Asp--Trp--OH]	≤ 2	74.5 min	74.5	
N=C(N)NCCC[C@H](NC(=O)[C@H](CO)NC(=O)[C@@H]1CCN1)C(=O)NCC(=O)N[C@@H](CC(=O)O)C(=O)N[C@@H](Cc1c[nH]c2ccccc12)C(=O)O [Example 17, (L-2-Azetidinecarboxyl)--Ser--Arg--Gly--Asp--Trp--OH] (H-[Aze]SRGDW-OH)	3.3		49	
N=C(N)NCCC[C@H](NC(=O)[C@H](CO)NC(=O)[C@@H]1CCC(=O)N1)C(=O)NCC(=O)N[C@@H](CC(=O)O)C(=O)N[C@@H](Cc1c[nH]c2ccccc12)C(=O)O [Example 11, Pyroglutamyl--Ser--Arg--Gly--Asp--Trp--OH] ([pGlu]SRGDW-OH)			≥ 240	
N=C(N)NCCC[C@H](NC(=O)[C@H](CO)NC(=O)c1cc(O)nc(O)n1)C(=O)NCC(=O)N[C@@H](CC(=O)O)C(=O)N[C@@H](Cc1c[nH]c2ccccc12)C(=O)O [Example 9, Orotyl--Ser--Arg--Gly--Asp--Trp--OH] (X2-SRGDW-OH)	10.1		≥ 240	time within which the peptide was broken down in the body or eliminated from the kidney (platelet aggregation): ≤ 60 min; Half-Time of the synthetic peptides in mice (in vivo): 6.9 min
heparin				activated partial thromboplastin time (blood coagulation): The same results were obtained; time to completely recover prothrombin time to the level before injection (blood coagulation): 2 to 3 h
N=C(N)NCCC[C@H](NC(=O)[C@H](CO)NC(=O)[C@@H]1CCCCN1)C(=O)NCC(=O)N[C@@H](CC(=O)O)C(=O)N[C@@H](Cc1c[nH]c2ccccc12)C(=O)O [Example 18, (L-Pipecolinyl)--Ser--Arg--Gly--Asp--Trp--OH] (H-[Pip]SRGDW-OH)	3.3	at least 120 minutes	≥ 120	
N=C(N)NCCC[C@H](N)C(=O)NCC(=O)N[C@@H](CC(=O)O)C(=O)N[C@@H](Cc1ccccc1)C(=O)O [RGDF, reference compound] (H-RGDF-OH)				stability when added to a platelet fraction (human platelets): broken down in several hours
WSRGDW-OH [Example 1, Trp--Ser--Arg--Gly--Asp--Trp--OH]	≤ 2	11.5 min	11.5	
